# Earlier results as cited in patent US4868157A, “Dipeptidyl 2-amino-1,2-dideoxy-D-glucose derivatives as host resistance enhancers in AIDS-immunocompromised hosts and methods of use” (priority 1987, dated 1989).
# Tests used:
# [1] = molecular target: HIV reverse transcriptase (Human immunodeficiency virus type 1 group M subtype B, UniProt P04585)
# AIDS-related virus = conditions: for symptoms and/or immune function in patients: ARC or AIDS patients, clinical trials; for viral replication in patients: humans / AIDS patients
# [2] = test system: Mycobacterium aviumintracellulare
# [3] = test system: AIDS-related Kaposi's sarcoma; conditions: AIDS-related Kaposi's sarcoma cases
molecule,measurement,setting,value
"O=C(O)P(=O)(O)O [Foscarnet, trisodium phosphonoformate]",inhibition of HIV reverse transcriptase,[1],Inhibits HIV reverse transcriptase activity in vitro at levels pharmacologically acceptable in vivo
"NC(=O)c1ncn([C@@H]2O[C@H](CO)[C@@H](O)[C@H]2O)n1 [Ribavirin, 1-β-D-ribofuranosyl-1,2,4-triazole-3-carboxamide]",symptoms and/or immune function in patients,AIDS-related virus,improved immune function
same,viral replication in patients,AIDS-related virus,inhibited viral replication
same,tolerability,"24-week trial in 373 ARC patients, at 12 weeks",well tolerated
same,safety profile,"human, in vivo",acceptable
CC(C)(N1CC1C#N)N1CC1C(N)=O (stereo not drawn) [Azimexon],symptoms and/or immune function in patients,AIDS-related virus,improvements in symptoms and immune function in patients with ARC but not AIDS
Cc1ccc(C(=O)Nc2ccc(S(=O)(=O)O)c3cc(S(=O)(=O)O)cc(S(=O)(=O)O)c23)cc1NC(=O)c1cccc(NC(=O)Nc2cccc(C(=O)Nc3cc(C(=O)Nc4ccc(S(=O)(=O)O)c5cc(S(=O)(=O)O)cc(S(=O)(=O)O)c45)ccc3C)c2)c1 [Suramin],therapeutic benefit / clinical improvement in AIDS patients,AIDS-related virus,little or no evidence of clinical improvement or immunologic recovery
ammonium 21-tungsto-9-antimoniate [HPA-23],therapeutic benefit / clinical improvement in AIDS patients,AIDS-related virus,no therapeutic benefit has been documented
"CC(=O)Nc1ccc(C(=O)O)cc1.CC(=O)Nc1ccc(C(=O)O)cc1.CC(=O)Nc1ccc(C(=O)O)cc1.CC(O)CN(C)C.CC(O)CN(C)C.CC(O)CN(C)C.O=c1[nH]cnc2c1ncn2[C@@H]1O[C@H](CO)[C@@H](O)[C@H]1O [Inosine pranobex, p-Acetamidobenzoic acid salt of (1-dimethylamino-2-propanol:inosinate complex 3:3:1 molar ratio)]",symptoms and/or immune function in patients,AIDS-related virus,improve immune function
"CO[C@H]1/C=C/O[C@@]2(C)Oc3c(C)c(O)c4c(c3C2=O)C2=NC3(CCN(CC(C)C)CC3)NC2=C(NC(=O)/C(C)=C\C=C\[C@H](C)[C@H](O)[C@@H](C)[C@@H](O)[C@@H](C)[C@H](OC(C)=O)[C@@H]1C)C4=O [Ansamycin, rifabutin]",efficacy in AIDS patients with opportunistic Mycobacterium aviumintracellulare infection,[2],some efficacy
"CC(C)(S)[C@@H](N)C(=O)O [D-Penicillamine, 3-mercapto-D-valine]",T cell levels,"AIDS-related virus; human, in vivo",temporarily depressed T cell levels
same,viral replication in patients,AIDS-related virus,Inhibits HIV reproduction in humans
same,effect on the virus,"AIDS-related virus; trials at George Washington University Medical Center, 13 AIDS patients with perpetually swollen glands",suppressed the virus
α-Interferon,growth of HIV in vitro,HIV,Checks the growth of HIV in vitro
same,tumor regression,[3],induced tumor regression in some AIDS-related Kaposi's sarcoma cases
